# Experiments:
# Format in all cases: in vivo
# Myzus persicae [1] = assay: Myzus persicae spray test (Chinese cabbage leaf discs); conditions: foliar, 120 h, after 5-6 days, read-out: efficacy
# Summary of the method: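 Formulated compound in acetone/dimethylformamide, diluted in water with 1000 ppm emulsifier, was sprayed onto Brassica pekinensis leaf discs carrying mixed-stage Myzus persicae. Percent mortality was read 5-6 days later (0% = no aphids killed, 100% = all killed).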
# Myzus persicae [2] = assay: Myzus persicae oral test; conditions: 120 h, 20 ppm, oral uptake, after 5 days, read-out: efficacy
# Summary of the method: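 Aphids of mixed ages imbibe, through parafilm, compound solution (acetone stock, water-diluted) combined with sugar-supplemented IPL41 medium to 200 μl. Efficacy read at day 5 as percent killed, 0% meaning no deaths.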
# Meloidogyne incognita = Meloidogyne incognita test; conditions: 336 h, lettuce, after 14 days, read-out: nematicidal efficacy (formation of galls)
# Summary of the method: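 Gall formation on lettuce roots scored after 14 days: 0% means gall count equals untreated control, 100% means none. Sand vessels held the compound (acetone concentrate diluted in water), southern root-knot nematode egg/larvae suspension and lettuce seeds.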
Compound,pest or weed control at 500 g/ha (Myzus persicae [1]),pest or weed control at 20 ppm (Myzus persicae [2]),pest or weed control at 20 ppm (Meloidogyne incognita),pest or weed control at 100 g/ha (Myzus persicae [1]; 100 g/ha)
Cn1cc(C(=O)NS(=O)(=O)c2c(Cl)cccc2Cl)nc1-c1c(F)cccc1F [Example 93],90%,100%,90%,
Cc1c(C(=O)NS(C)(=O)=O)nc(-c2ccccc2Cl)n1C [Example 71],90%,100%,90%,
Cc1cc(C(=O)NS(=O)(=O)c2ccccc2Br)nn1-c1ncccc1Cl [Example 283],100%,100%,90%,
Cn1cc(C(=O)NS(=O)(=O)c2ccc(Cl)s2)nc1-c1c(F)cccc1F [Example 352],90%,100%,100%,
Cn1cc(C(=O)NS(=O)(=O)c2ccccc2Cl)nc1-c1ncccc1F [Example 499],100%,100%,90%,
CCn1cc(C(=O)NS(=O)(=O)c2c(Cl)cccc2Cl)nc1-c1ccccc1Cl [Example 69],90%,100%,90%,
Cc1cc(C(=O)NS(=O)(=O)c2ccccc2Cl)nn1-c1c(F)cccc1F [Example 1],100%,100%,100%,
Cn1cc(C(=O)NS(=O)(=O)c2c(F)cccc2Cl)nc1-c1c(F)cccc1F [Example 431],90%,100%,90%,
CCn1cc(C(=O)NS(=O)(=O)c2ccccc2)nc1-c1ccccc1Cl [Example 41],90%,90%,90%,
Cn1cc(C(=O)NS(=O)(=O)c2cccc3ccn(C)c23)nc1-c1c(F)cccc1F [Example 323],100%,100%,90%,
Cn1cc(C(=O)NS(=O)(=O)c2c(F)cccc2C(F)(F)F)nc1-c1c(F)cccc1F [Example 371],90%,100%,90%,
CCc1ccccc1S(=O)(=O)NC(=O)c1cc(OC)n(-c2ccccc2Cl)n1 [Example 281],90%,100%,100%,
Cn1cc(C(=O)NS(=O)(=O)c2ccc(F)cc2Br)nc1-c1c(F)cccc1F [Example 438],100%,90%,90%,
COc1cc(C(=O)NS(=O)(=O)c2ccccc2Cl)nn1-c1ccccc1Cl [Example 275],90%,100%,100%,
COc1cccc(OC)c1S(=O)(=O)NC(=O)c1cn(C)c(-c2c(F)cccc2F)n1 [Example 378],,100%,90%,90%
O=C(NS(=O)(=O)c1c(Cl)cccc1Cl)c1cc(-c2ncccc2Cl)n(-c2ccccc2Cl)n1 [Example 266],90%,100%,90%,
CC(C)S(=O)(=O)NC(=O)c1nc(-c2ccccc2Cl)n(C)c1Cl [Example 206],100%,90%,100%,
Cc1ccccc1S(=O)(=O)NC(=O)c1cn(C)c(-c2ncccc2F)n1 [Example 500],100%,100%,90%,
Cn1cc(C(=O)NS(=O)(=O)c2ccc(Br)cc2F)nc1-c1c(F)cccc1F [Example 437],100%,100%,90%,
Cn1nc(C(=O)NS(=O)(=O)c2c(Cl)cccc2Cl)nc1-c1c(F)cccc1F [Example 13],100%,100%,90%,
Cc1ccccc1S(=O)(=O)NC(=O)c1cn(C)c(-c2cc(F)ccc2F)n1 [Example 520],90%,100%,100%,
Cn1cc(C(=O)NS(=O)(=O)c2c(Cl)cccc2Cl)nc1-c1ncccc1Cl [Example 588],90%,100%,90%,
Cc1cc(F)ccc1S(=O)(=O)NC(=O)c1cn(C)c(-c2c(F)cccc2F)n1 [Example 444],90%,100%,100%,

# Reference: patent US20200288710A1, “SUBSTITUTED SULPHONAMIDES FOR CONTROLLING ANIMAL PESTS” (BAYER CROPSCIENCE AKTIENGESELLSCHAFT, priority 2016, published 2020)
